Patent US5807861A, “Amine substituted xanthinyl compounds” (Cell Therapeutics, Inc., priority 1995, dated 1998)

Tests used:
[1] = test system: mouse femoral marrow CFU-GM; conditions: in vivo
Description: Mouse spleen conditioned-medium, at a concentration of 2%, was used in this assay. The medium and semi-solid culture mix were procured from Stem Cell Technologies in Vancouver, BC.

human stromal cells [2] = experiment: Comparative: PDGF-BB-induced proliferation in human stromal cells; format: cell-based; conditions: 50 ng/ml PDGF-BB; drugs added one hour prior (FIG. 23)
Description: Human stromal cells were starved in serum-free media for 24 hours and then stimulated with 50 ng/ml PDGF-BB. The drugs were added at various concentrations one hour prior to PDGF stimulation. Tritiated thymidine was added at the time of PDGF stimulation and pulsed for 24 hours. Cells were harvested and cell proliferation measured (FIG. 23). Background counts (i.e., starved cells) were about 10% of control levels.

human stromal cells [3] = experiment: PDGF-induced proliferation in human stromal cells; format: cell-based; conditions: 50 ng/ml PDGF; compound added one hour prior; various concentrations (FIG. 1)
Description: 3506 on PDGF-induced proliferation in human stromal cells. Procedurally, human stromal cells were starved in serum-free media for 24 hours and then stimulated with 50 ng/ml PDGF. Compound no. 3506 was added at various concentrations one hour prior to PDGF stimulation and pulsed for 24 hours. Cells were harvested and cell proliferation measured having background counts (i.e., starved cells) at about 10% of control levels.

thymocytes = experiment: thymocyte proliferation co-stimulated with Con A and IL-2; format: cell-based, mouse (Balb/C); conditions: co-stimulated with Con A and IL-2, various concentrations
Description: 3506, 3556, 3563, 3576, 3581, 3582 and 3584 on thymocyte proliferation and activation, co-stimulated with Concanavalin A (Con A) and interleukin-2 (IL-2), at various concentrations of the compounds (IC50). Con A and IL-2 together stimulate T cell proliferation and differentiation.
Thymuses, obtained from normal, female Balb/C mice, were dissociated and plated into 96-well plates at a density of 2×10^5 cells/well. Con A ([…]) and IL-2 (15 U/ml) were added to the wells. The cells were incubated for 4 days at 37° C. On day 4, the cells were pulsed with tritiated thymidine and incubated for an additional 4 hours. Incorporated tritiated thymidine of harvested cells was determined in a liquid scintillation counter. Results plotted as dose concentration versus proliferation for inventive compounds nos. 3506, 3556, 3563, 3576, 3581, 3582 and 3584 are shown in FIGS. 6 (3506), 7 (3556), 8 (3563), 9 (3576), 10 (3581 and 3582) and 11 (3584). Respective concentrations of inventive compound (shown in the figures) were added two hours prior to Con A and IL-2 activation. Background counts were less than 200 cpm.

[4] = test system: mouse bone marrow cells (CFU-GM); experiment: CFU-GM colony assay, effect on normal mouse bone marrow cells; format: cell-based; conditions: for cytotoxicity to normal mouse marrow cells: 8 h incubation, 7 days colony growth; for effect on normal cells compared to known chemotherapeutic compounds: in vitro, vs vinblastine, 5-fluorouracil, doxorubicin or cisplatinum
Text: This example illustrates a method for examining an effect of the inventive compounds, showing potential as cancer therapies, on normal cells. This assay has been used clinically to evaluate recovery of patients' marrow following chemotherapy or radiation. In this specific example, inventive compounds nos.
Mouse bone marrow cells are useful in this assay because they produce colonies, which can later be counted, in culture. The colonies are called colony forming unit-granulocyte macrophage (CFU-GM) and depend on a source of colony stimulating factor for growth.
Cells were cultured with inventive compounds nos. 3563, 3576, 3581, 3584 and 4500, to comparatively evaluate an effect on normal cells of inventive compounds identified as potential cancer therapies. Procedurally, cells were incubated for 8 hours with various concentrations of these compounds. A negative control without any compound was simultaneously prepared. After 8 hours, the incubated cells were washed thoroughly and a consistent number were subsequently plated to obtain CFU-GM. Colonies were permitted to grow for 7 days at 37° C., in 5% CO2. After 7 days of growth, colony growths were counted microscopically. Data obtained in this assay for inventive compounds nos. 3563, 3576, 3581, 3584 and 4500 are plotted in FIGS. 12, 13, 14, 15 and 16, respectively. The data in the figures are shown to compare the colonies counted for cells incubated with varying concentrations of the compounds tested against the negative control, without compound. At concentrations ranging from 5 to 30 μM, more colonies existed for cells incubated with the inventive potential cancer compound than with known, chemotherapeutic agents. Compound no.

[5] = test system: polymorphonuclear leukocytes; conditions: U.S. Pat. No. 4,636,507; cited from earlier work
certain cytokines = conditions: U.S. Pat. Nos. 4,965,271 and 5,096,906; cited from earlier work
[6] = test system: tumor necrosis factor (TNF); conditions: PTX recipients; cited from earlier work
PAPH = conditions: specific activation pathway that does not involve PI; cited from earlier work
Balb/3T3 cells = experiment: Balb/3T3 viability (cytotoxicity) assay with BCECF; format: cell-based; conditions: BCECF fluorescence; concentrations shown in FIGS. 1, 2 and 4; control value of 100%
Description: In conjunction with the Balb/3T3 proliferation assay, a related viability assay was conducted to assess the cytotoxicity of compounds which inhibit proliferation in this system. The assay protocol was identical to that performed above except that tritiated thymidine was not added after the 24 hour incubation with PDGF. In this cytotoxicity assay, after incubating the cells, a 10 μM solution of BCECF was added and the cells were incubated for 30 minutes at 37° C. Following this incubation, BCECF was replaced with PBS and the plate read for fluorescence in a Millipore cytofluorometer. Data obtained was plotted as a percent of control versus concentration of inventive compound tested. FIGS. 3 and 5 represent the results of this viability assay, for compounds nos. 3556 and 4500, respectively.

293-EBNA cells = experiment: 293-EBNA cell viability (alamarBlue); format: cell-based
Description: The effect of respective inventive compounds on the viability of 293-EBNA cells was measured by a colorimetric assay that uses the alamarBlue® dye (purchased from Alamar Biosciences, Inc.) to report cell proliferation, viability and cytotoxicity. This dye is an oxidation-reduction (Redox) indicator that changes color in response to chemical reduction of growth medium resulting from cell growth. The general procedure involves adding alamar-Blue® in an amount equal to 10% of the culture volume, returning the culture to incubator for four hours, and measuring the absorbance at 570 nm after subtraction of background absorbance at 600 nm.

JR-CSF strain of HIV-1 = experiment: JR-CSF HIV-1 infection of human peripheral blood lymphocytes (p24 antigen ELISA); format: cell-based, HIV-1 (in human PBL); conditions: 10 and 20 μM
Description: In a protocol for infecting a PBL cell suspension, JR-CSF HIV-1 was clarified at low-speed centrifugation (2,000-3,000 rpm) or filtration and stored in aliquots at -70° C. To maintain consistent titers, HIV-1 aliquots were not subjected to repeated freezing and thawing and any remainder was discarded. Virus aliquots were thawed at room temperature or under cold running water for more rapid thawing and maintained in ice after thawing. Just prior to infection of PBL cells, the supernatant or dilution were warmed to room temperature.
Human PBL cells taken from a suitable donor were centrifuged down at 1000 rpm for 5-10 minutes at room temperature. While cells were spinning, the virus inoculum was prepared in medium by adding 10 μg/ml Polybrene®. The centrifuged cells were resuspended in virus inoculum, using 1 ml of virus inoculum per 10^7 cells. A more efficient HIV-1 infection is obtained with smaller amounts of inoculum. The cells were incubated at 37° C. in the presence of virus inoculum for 2 hours, shaking the suspension every half hour. After 2 hours, the suspension was spun down, the virus inoculum removed and the cells were washed with 10 ml of fresh media.
The infected cells, inoculated with virus at a concentration of 10 ng virus/10^6 PBL, were washed and resuspended in growth medium ([…] RPMI/20 % FBS/10 units/ml IL-2). […]

In the case of `O=c1[nH]cc(F)c(=O)[nH]1` [5-fluorouracil], the “CFU-GM detectable in mouse femoral marrow” value [1] is reported as “no CFU-GM were detectable”.
With `CC(=O)CCCCCCn1c(=O)c2c(ncn2C)n(C)c1=O` [A, 1-(7-oxooctyl)-3,7-dimethylxanthine] the “concentrations at which activity on PDGF-induced proliferation is apparent” value (human stromal cells [2]) was “millimolar concentrations”.
With `CC(CCCCn1c(=O)c2c(ncn2C)n(C)c1=O)N(C)C` (centres unmarked) [B, 1-(5-dimethylaminohexyl)-3,7-dimethylxanthine] the “concentrations at which activity on PDGF-induced proliferation is apparent” value (human stromal cells [2]) was “millimolar concentrations”.
In the case of `CCCCCCCCCCCNCCCCCCn1c(=O)c2c(ncn2C)n(C)c1=O` [Compound no. 3506], the “inhibition of PDGF-induced proliferation” value (human stromal cells [3]) is reported as “inhibition of PDGF-induced proliferation” and the “effect on thymocyte proliferation and activation” value (thymocytes) is reported as “inhibitive effect”.
For `CCCCCCCCCCCCNCCCCCCCCCCCn1c(=O)c2c(ncn2C)n(C)c1=O` [Compound no. 3563], the “effect on thymocyte proliferation and activation” value (thymocytes) was “inhibitive effect”, the “cytotoxicity to normal mouse marrow cells” value [4] was “most cytotoxic to proliferative potential of the mouse marrow cells” and the “effect on normal cells compared to known chemotherapeutic compounds” value [4] was “less deleterious to normal cells”.
For `CC(O)CCCCn1c(=O)c2c(ncn2C)n(C)c1=O` (centres unmarked) [M1, 1-(5-hydroxyhexyl)-3,7-dimethylxanthine], the “chemotaxis in polymorphonuclear leukocytes responding to chemotaxis stimulation” value [5] is given as “enhance chemotaxis”.
In the case of `CC(=O)CCCCn1c(=O)c2c(ncn2C)n(C)c1=O` [PTX, 1-(5-oxohexyl)-3,7-dimethylxanthine], the “chemotaxis in polymorphonuclear leukocytes responding to chemotaxis stimulation” value [5] is listed as “enhance chemotaxis”, the “effect on activity of certain cytokines to affect chemotaxis” value (certain cytokines) is listed as “inhibit activity of certain cytokines” and the “TNF levels in normal volunteers” value [6] is listed as “TNF levels were higher”. The “effect on PAPH” value (PAPH) was “blocks PAPH”.
With `CCCCCCCCNCCCCCCCCCCCn1c(=O)c2c(ncn2C)n(C)c1=O` [compound 3556, 1-(11-octylaminoundecyl)-3,7-dimethylxanthine] the “cytotoxicity at the concentrations that inhibit proliferation” value (Balb/3T3 cells) was “not cytotoxic to any cells”, the “effect on thymocyte proliferation and activation” value (thymocytes) was “inhibitive effect” and the “concentration at which cytotoxicity becomes significant” value (293-EBNA cells) was over 10 µM. The “effect on HIV-1 viral infection” value (JR-CSF strain of HIV-1) was “virtually eliminated viral infection”.
For `CCCCCCCCCCCCN(C)CCCCCCCCCCCn1c(=O)c2c(ncn2C)n(C)c1=O` [compound 3576], the “effect on thymocyte proliferation and activation” value (thymocytes) was “inhibitive effect” and the “effect on normal cells compared to known chemotherapeutic compounds” value [4] was “less deleterious to normal cells”.
With `CCCCCCCCCCNCCCCCCCCCCCn1c(=O)c2c(ncn2C)n(C)c1=O` [compound 3581] the “effect on thymocyte proliferation and activation” value (thymocytes) was “inhibitive effect” and the “effect on normal cells compared to known chemotherapeutic compounds” value [4] was “less deleterious to normal cells”.
With `CCCCCCCCCCCCCCNCCCCCCCCCCCn1c(=O)c2c(ncn2C)n(C)c1=O` [compound 3582] the “effect on thymocyte proliferation and activation” value (thymocytes) was “inhibitive effect”.
With `CCCCCCCCCCCCCCCCNCCCCCCCCCCCn1c(=O)c2c(ncn2C)n(C)c1=O` [compound 3584] the “effect on thymocyte proliferation and activation” value (thymocytes) was “inhibitive effect” and the “effect on normal cells compared to known chemotherapeutic compounds” value [4] was “less deleterious to normal cells”.
With `CCCCCCN(CCCCCC)CCCCCCCCCCCn1c(=O)c2c(ncn2C)n(C)c1=O` [compound 3590] the “concentration at which there is still little cytotoxicity” value (293-EBNA cells) was over 32 µM.
For `COc1cc(CNCCCCCCCCCCCn2c(=O)c3c(ncn3C)n(C)c2=O)cc(OC)c1OC` [compound 3593], the “concentration at which there is still little cytotoxicity” value (293-EBNA cells) was over 32 µM.
In the case of `CCCCCCN(C)CCCCCCCCCCCn1c(=O)c2c(ncn2C)n(C)c1=O` [compound 4500], the “cytotoxicity at the concentrations that inhibit proliferation” value (Balb/3T3 cells) is reported as “not cytotoxic to any cells”, the “cytotoxicity to normal mouse marrow cells” value [4] is reported as “virtually no toxicity at elevated concentrations for the normal mouse marrow cells” and the “concentration at which there is still little cytotoxicity” value (293-EBNA cells) is reported as over 32 µM.
